In test [1] the target is T1, TDO2 (SW48 cells, high TDO expressing cells) (Homo sapiens, UniProt P48775).
T1 construct: SW48 cells (high TDO expressing cells); endogenous in cells; host or cells: SW48 cells
Description: NFK GreenScreen cell assay, inhibition of TDO in SW48 cells. The class given is cell-based. The settings on record: read-out: TDO2 Cell Fluor EC50. The text has this:
(§1) Cells are counted on a Vi-Cell (Beckman Coulter). […] The final DMSO concentration is 0.5%.

Test [2] addresses T2, IDO1 (A172+IFNg cells, high IDO expressing cells) (Homo sapiens, UniProt P14902).
T2 construct: A172+IFNg cells (high IDO expressing cells); endogenous in cells; host or cells: A172 cells induced with 100 ng/ml IFNγ
As to the kind of experiment: NFK GreenScreen cell assay, inhibition of IDO in A172+IFNg cells. The settings on record: read-out: IDO cell Fluor EC50. The class given is cell-based.
Excerpt: as §1

The structures appear in SMILES notation. pEC50: −log10 of the molar value.

T2 sequence (P14902 whole entry): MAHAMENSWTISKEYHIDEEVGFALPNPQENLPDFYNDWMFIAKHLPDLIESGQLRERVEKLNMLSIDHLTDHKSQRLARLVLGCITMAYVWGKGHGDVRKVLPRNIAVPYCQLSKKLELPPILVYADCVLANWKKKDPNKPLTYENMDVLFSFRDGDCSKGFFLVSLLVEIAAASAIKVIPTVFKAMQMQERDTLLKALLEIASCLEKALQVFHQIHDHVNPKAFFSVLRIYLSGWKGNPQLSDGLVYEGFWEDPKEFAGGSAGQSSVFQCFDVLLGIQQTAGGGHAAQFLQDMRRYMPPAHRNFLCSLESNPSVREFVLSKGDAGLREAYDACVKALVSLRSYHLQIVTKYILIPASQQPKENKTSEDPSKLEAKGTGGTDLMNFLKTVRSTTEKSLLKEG
T1 sequence (P48775 whole entry): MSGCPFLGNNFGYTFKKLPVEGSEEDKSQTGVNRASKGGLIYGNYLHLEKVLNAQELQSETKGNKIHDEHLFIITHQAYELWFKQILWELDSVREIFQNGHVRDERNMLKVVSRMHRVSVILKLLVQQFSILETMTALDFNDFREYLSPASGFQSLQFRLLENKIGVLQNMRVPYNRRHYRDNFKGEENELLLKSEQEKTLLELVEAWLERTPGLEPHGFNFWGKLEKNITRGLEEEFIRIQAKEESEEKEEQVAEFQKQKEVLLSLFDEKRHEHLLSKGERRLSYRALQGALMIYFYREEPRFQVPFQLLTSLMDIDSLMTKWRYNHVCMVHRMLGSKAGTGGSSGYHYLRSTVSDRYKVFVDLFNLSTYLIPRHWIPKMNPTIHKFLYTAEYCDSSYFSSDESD

In the case of `O=S(=O)(C1COC1)N1CCC2(CC1)C[C@H](C1c3ccccc3-c3cncn31)[C@@H]2O` (stereo in doubt) [Example 23b, (2R,3S)-2-((5S)5H-imidazo[1,5-b]isoindol-5-yl)-7-(oxetan-3-ylsulfonyl)-7-azaspiro[3.5]nonan-3-ol], the negative logarithm of the EC50 (pEC50) (in general, the negative decadic logarithm of the EC50, by convention in mol/L) in test [1] is 5.49; in test [2] it was 5.60.

For `CC(C)(C)OC(=O)N1[C@@H]2CC[C@H]1C[C@]1(C[C@H]([C@@H]3c4ccccc4-c4cncn43)[C@@H]1O)C2` [Example 12a, tert-butyl (1R,2′S,3r,3′R,5S)-2′-hydroxy-3′-((R)-5H-imidazo[5,1-a]isoindol-5-yl)-8-azaspiro[bicyclo[3.2.]octane-3,1′-cyclobutane]-8-carboxylate], the figures for the negative-log EC50 (pEC50) in test [1] and in test [2] were 5.92 and 6.04, respectively.

Regarding `N#CCS(=O)(=O)N1CCC2(CC1)CC(C1c3ccccc3-c3cncn31)C2O` (stereo not drawn) [Example 21a, 2-[[3-hydroxy-2-(5H-imidazo[,5-b]isoindol-5-yl)-7-azaspiro[3.5]nonan-7-yl]sulfonyl]acetonitrile], the negative logarithm of the EC50 (pEC50) in test [1] is 6.74; in test [2], 6.82.

On to `N#CCS(=O)(=O)N1CCC2(CC1)C[C@@H]([C@H]1c3ccccc3-c3cncn31)[C@H]2O` [Example 21b, (2S,3R)-2-[[3-hydroxy-2-((5S)-5H-imidazo[1,5-b]isoindol-5-yl)-7-azaspiro[3.5]nonan-7-yl]sulfonyl]acetonitrile], for which the pEC50 in test [1] was 7.00; in test [2], 7.12.

Regarding `N#CCS(=O)(=O)N1CCC2(CC1)C[C@H]([C@@H]1c3ccccc3-c3cncn31)[C@@H]2O` [Example 21c, (2R,3S)-2-[[3-hydroxy-2-((5R)-5H-imidazo[1,5-b]isoindol-5-yl)-7-azaspiro[3.5]nonan-7-yl]sulfonyl]acetonitrile], the pEC50 is 5.23 in test [1] and 5.32 in test [2].

Turning to `CC(C)(C)OC(=O)N1CC2CCC(C1)C21C[C@@H]([C@@H]2c3ccccc3-c3cncn32)[C@H]1O` (stereo partly drawn) [Example 22d, tert-butyl (2′R,3′S)-2′-hydroxy-3′-((R)-5H-imidazo[5,1-a]isoindol-5-yl)-3-azaspiro[bicyclo[3.2.1]octane-8,1′-cyclobutane]-3-carboxylate], the pEC50 in test [1] was 6.36; in test [2], 5.85.

For `CC(C)(C)OC(=O)N1CC2CCC(C1)C21C[C@@H]([C@@H]2c3ccccc3-c3cncn32)[C@@H]1O` (stereo partly drawn) [Example 22e, tert-butyl (2′S,3′S)-2′-hydroxy-3′-((R)-5H-imidazo[5,1-a]isoindol-5-yl)-3-azaspiro[bicyclo[3.2.1]octane-8,1′-cyclobutane]-3-carboxylate], the negative-log EC50 (pEC50) in test [1] was 4.77; in test [2], 5.07.

Regarding `CC(C)(C)OC(=O)N1CC2CCC(C1)C21C[C@H]([C@H]2c3ccccc3-c3cncn32)[C@H]1O` (stereo partly drawn) [Example 22f, tert-butyl (2′R,3′R)-2′-hydroxy-3′-((S)-5H-imidazo[5,1-a]isoindol-5-yl)-3-azaspiro[bicyclo[3.2.1]octane-8,1′-cyclobutane]-3-carboxylate], the results for the pEC50 in test [1] and in test [2] were 5.85 and 7.04, respectively.

Take `CC(C)(C)OC(=O)N1CC2CCC(C1)C21C[C@H]([C@@H]2c3ccccc3-c3cncn32)[C@H]1O` (stereo partly drawn) [Example 22g, tert-butyl (2′R,3′R)-2′-hydroxy-3′-((R)-5H-imidazo[5,1-a]isoindol-5-yl)-3-azaspiro[bicyclo[3.2.1]octane-8,1-cyclobutane]-3-carboxylate]: the negative-log EC50 (pEC50) in test [1] is 6.80; in test [2], 7.39.

`CC(C)(C)OC(=O)N1CC2CCC(C1)C21C[C@@H]([C@H]2c3ccccc3-c3cncn32)[C@@H]1O` (stereo partly drawn) [Example 22h, tert-butyl (2′S,3′S)-2′-hydroxy-3′-((S)-5H-imidazo[5,1-a]isoindol-5-yl)-3-azaspiro[bicyclo[3.2.1]octane-8,1′-cyclobutane]-3-carboxylate]: the pEC50 in test [1] is 5.40; in test [2] it was 5.55.

Consider `O=S(=O)(C1COC1)N1CCC2(CC1)CC(C1c3ccccc3-c3cncn31)C2O` (stereo not drawn) [Example 23a, 2-(5H-imidazo[1,5-b]isoindol-5-yl)-7-(oxetan-3-ylsulfonyl)-7-azaspiro[3.5]nonan-3-ol], for which the results for the negative logarithm of the EC50 (pEC50) in test [1] and in test [2] were 6.48 and 6.82, respectively.

Turning to `O=S(=O)(C1COC1)N1CCC2(CC1)C[C@@H]([C@H]1c3ccccc3-c3cncn31)[C@H]2O` [Example 23c, (2S,3R)-2-[(5S)-5H-imidazo[1,5-b]isoindol-5-yl]-7-(oxetan-3-ylsulfonyl)-7-azaspiro[3.5]nonan-3-ol], the values for the negative logarithm of the EC50 (pEC50) in test [1] and in test [2] were 7.05 and 7.30, respectively.

As to `CC(C)(C)OC(=O)N[C@H]1CC[C@]2(CC1)C[C@H]([C@H]1c3ccccc3-c3cncn31)[C@@H]2O` [Example 24g, tert-butyl ((1S,2R,4r,7S)-1-hydroxy-2-((S)-5H-imidazo[5,1-a]isoindol-5-yl)spiro[3.5]nonan-7-yl)carbamate], the pEC50 was 5.96 in test [1] and 5.74 in test [2].

Consider `CC(C)(C)OC(=O)N[C@H]1CC[C@@]2(CC1)C[C@H](C1c3ccccc3-c3cncn31)[C@H]2O` (stereo partly drawn) [Example 24k, tert-butyl ((1S,2S,4s,7R)-1-hydroxy-2-((S)-5H-imidazo[5,1-a]isoindol-5-yl)spiro[3.5]nonan-7-yl)carbamate], for which the values for the negative-log EC50 (pEC50) in test [1] and in test [2] were 4.85 and 5.30, respectively.

On to `CS(=O)(=O)N1CC2(CC(C3c4ccccc4-c4cncn43)C2O)C1` (stereo not drawn) [compound 5, 6-(5H-imidazo[1,5-b]isoindol-5-yl)-2-methylsulfonyl-2-azaspiro[3.3]heptan-7-ol], for which the pEC50 in test [1] was 6.64; in test [2], 6.34.

`Cn1cc(S(=O)(=O)N2CCC3(CC2)CC(C2c4ccccc4-c4cncn42)C3O)cn1` (stereo not drawn) [compound 26, 2-(5H-imidazo[1,5-b]isoindol-5-yl)-7-(1-methylpyrazol-4-yl)sulfonyl-7-azaspiro[3.5]nonan-3-ol]: the negative-log EC50 (pEC50) was 6.66 in test [1] and 6.96 in test [2].

For `Cc1nn(C)c(C)c1S(=O)(=O)N1CCC2(CC1)CC(C1c3ccccc3-c3cncn31)C2O` (stereo not drawn) [compound 27, 2-(5H-imidazo[1,5-b]isoindol-5-yl)-7-(1,3,5-trimethylpyrazol-4-yl)sulfonyl-7-azaspiro[3.5]nonan-3-ol], the figures for the pEC50 in test [1] and in test [2] were 6.85 and 7.52, respectively.

On to `CC(C)S(=O)(=O)N1CCC2(CC1)C[C@@H]([C@H]1c3ccccc3-c3cncn31)[C@H]2O` [compound 29, 2-(5H-imidazo[1,5-b]isoindol-5-yl)-7-isopropylsulfonyl-7-azaspiro[3.5]nonan-3-ol], for which the pEC50 was 6.62 in test [1] and 7.23 in test [2].

Consider `Cc1nc(S(=O)(=O)N2CCC3(CC2)C[C@@H]([C@H]2c4ccccc4-c4cncn42)[C@H]3O)cn1C` [compound 30], for which the negative logarithm of the EC50 (pEC50) was 6.31 in test [1] and 6.49 in test [2].

In the case of `Cc1noc(C)c1S(=O)(=O)N1CCC2(CC1)C[C@@H]([C@H]1c3ccccc3-c3cncn31)[C@H]2O` [compound 31], the pEC50 is 5.66 in test [1] and 6.82 in test [2].

`Cc1ccncc1S(=O)(=O)N1CCC2(CC1)C[C@@H]([C@H]1c3ccccc3-c3cncn31)[C@H]2O` [compound 32, (1R,2S)-2-((S)-5H-imidazo[5,1-a]isoindol-5-yl)-7-((4-methylpyridin-3-yl)sulfonyl)-7-azaspiro[3.5]nonan-1-ol]: the pEC50 was 6.52 in test [1] and 7.31 in test [2].

Source of the values: patent US11603373B2, “TDO2 and IDO1 inhibitors” (Genentech, Inc., priority 2017, dated 2023).
